Experimental data from US5041567A, “Antibacterial monic acid derivatives” (Beecham Group plc, priority 1982, dated 1991).
≈ marks a conversion by molar mass, not a printed value. Where two headings read alike, the source gives them in different places.

Key:
M. suipneumoniae NB12 = test: MIC against mycoplasma in vitro; format: cell-based; details: Mesomycoplasma hyopneumoniae
M. suipneumoniae HK(2) = test: MIC against mycoplasma in vitro; format: cell-based; details: Mesomycoplasma hyopneumoniae, 144 h
[1] = tested on: M. suipneumoniae J2206/183^b; test: MIC against mycoplasma in vitro; format: cell-based; details: Mesomycoplasma hyopneumoniae, 144 h
M. suipneumoniae MS 16 = test: MIC against mycoplasma in vitro; format: cell-based; details: Mesomycoplasma hyopneumoniae, MS16, 144 h; M. suipneumoniae MS 16; 6 days, 37° C.; read-out: MIC
M. suipneumoniae LABER = test: MIC against mycoplasma in vitro; format: cell-based; details: Mesomycoplasma hyopneumoniae, 144 h; M. suipneumoniae LABER; 6 days, 37° C.; read-out: MIC
M. suipneumoniae UCD 1 = test: MIC against mycoplasma in vitro; format: cell-based; details: Mesomycoplasma hyopneumoniae, UCD1, 144 h
M. suipneumoniae TAM 6N = test: MIC against mycoplasma in vitro; format: cell-based; details: Mesomycoplasma hyopneumoniae, TAM6N, 144 h
[2] = tested on: M. suipneumoniae ATCC 25095; test: MIC against mycoplasma in vitro; format: cell-based; details: Mesomycoplasma hyopneumoniae, ATCC25095, 144 h
M. hyorhinis ATCC 23234 = test: MIC against mycoplasma in vitro; format: cell-based; details: Mesomycoplasma hyorhinis, ATCC23234, 144 h
M. hyorhinis ATCC 25021 = test: MIC against mycoplasma in vitro; format: cell-based; details: Mesomycoplasma hyorhinis, ATCC25021, 144 h; M. hyorhinis ATCC 25021; 6 days, 37° C.; read-out: MIC
[3] = tested on: M. hyosynoviae ATCC 25591; test: MIC against mycoplasma in vitro; format: cell-based; details: 144 h
M. bovis NCTC 10131 = test: microbe, parasite or virus in culture; format: cell-based; details: NCTC10131, 144 h
[4] = tested on: M. bovigenitalium ATCC 14173; test: MIC against mycoplasma in vitro; format: cell-based; details: 144 h
P. mirabilis 889 = test: MIC against human bacteria in vitro; format: cell-based; details: Proteus mirabilis; P. mirabilis 889; 5% chocolated horse blood agar, 18 hours; read-out: MIC
K. aerogenes A = test: MIC against human bacteria in vitro; format: cell-based; details: Klebsiella aerogenes; K. aerogenes A; 5% chocolated horse blood agar, 18 hours; read-out: MIC
[5] = tested on: Ps. aeruginosa NCTC 10662; test: MIC against human bacteria in vitro; format: cell-based; details: Pseudomonas aeruginosa, NCTC10662; Ps. aeruginosa NCTC 10662; 5% chocolated horse blood agar, 18 hours; read-out: MIC
[6] = tested on: Haemophilus influenzae Wy21; test: MIC against human bacteria in vitro; format: cell-based; details: Haemophilus influenzae Wy21; 5% chocolated horse blood agar, 18 hours; read-out: MIC
[7] = tested on: Corynebacterium xerosis 9755; test: MIC against human bacteria in vitro; format: cell-based; details: Corynebacterium xerosis 9755; 5% chocolated horse blood agar, 18 hours; read-out: MIC
Sarcina lutea 8340 = test: MIC against human bacteria in vitro; format: cell-based; details: Micrococcus luteus; Sarcina lutea 8340; 5% chocolated horse blood agar, 18 hours; read-out: MIC
Staph. aureus Russell = test: MIC against human bacteria in vitro; format: cell-based; details: Staphylococcus aureus; Staph. aureus Russell; 5% chocolated horse blood agar, 18 hours; read-out: MIC
Staph. aureus W2827 = test: MIC against human bacteria in vitro; format: cell-based; details: Staphylococcus aureus; Staph. aureus W2827; 5% chocolated horse blood agar, 18 hours; read-out: MIC
Strep. faecalis I = test: MIC against human bacteria in vitro; format: cell-based; details: Enterococcus faecalis; Strep. faecalis I; 5% chocolated horse blood agar, 18 hours; read-out: MIC
Strep. agalactiae 2788-B = test: MIC against human bacteria in vitro; format: cell-based; details: Streptococcus agalactiae; Strep. agalactiae 2788-B; 5% chocolated horse blood agar, 18 hours; read-out: MIC
Bord. bronchiseptica B08 = test: MIC against veterinary bacteria in vitro; details: Bordetella bronchiseptica, B08, 18 h
Description: (§1) The activity of the compounds of the Examples against various veterinarily important bacteria, was assayed in vitro using two-fold serial dilutions in Diagnostic Sensitivity Test Agar inoculated with 10^4 organisms.

Bord. bronchiseptica B09 = test: MIC against veterinary bacteria in vitro; details: Bordetella bronchiseptica, B09, 18 h
Description: as §1

Past. multocida PA1 = test: MIC against veterinary bacteria in vitro; details: Pasteurella multocida, PA1, 18 h
Description: as §1

Past. multocida PA2 = test: MIC against veterinary bacteria in vitro; details: Pasteurella multocida, PA2, 18 h
Description: as §1

Past. haemolytica PA5 = test: MIC against veterinary bacteria in vitro; details: Mannheimia haemolytica, PA5, 18 h
Description: as §1

[8] = tested on: Erysipelothrix rhusiopathiae NCTC 8163; test: MIC against veterinary bacteria in vitro; details: Erysipelothrix rhusiopathiae, NCTC8163, 18 h
Description: as §1

[9] = tested on: Corynebacterium pyogenes CY1; test: MIC against veterinary bacteria in vitro; details: CY1, 18 h
Description: as §1

[10] = tested on: Staph. aureus B4 (pen. resistant); test: MIC against veterinary bacteria in vitro; details: Staphylococcus aureus, 18 h
Description: as §1

[11] = tested on: Strep. suis (group D) SPS11; test: MIC against veterinary bacteria in vitro; details: Streptococcus suis, 18 h
Description: as §1

Strep. dysgalactiae SPD1 = test: MIC against veterinary bacteria in vitro; details: Streptococcus dysgalactiae, SPD1, 18 h
Description: as §1

[12] = M. suipneumoniae ATCC 25095, 6 days, 37° C., read-out: MIC
[13] = M. hyorhinis ATCC 23234, 6 days, 37° C., read-out: MIC

| Compound | MIC (M. suipneumoniae MS 16) [mg/L] | MIC (M. suipneumoniae LABER) [mg/L] | MIC (M. hyorhinis ATCC 25021) [mg/L] | MIC [3] [mg/L] | MIC (M. bovis NCTC 10131) [mg/L] | MIC [4] [mg/L] | MIC (P. mirabilis 889) [mg/L] | MIC (K. aerogenes A) [mg/L] | MIC [5] [mg/L] | MIC [6] [mg/L] | MIC [7] [mg/L] | MIC (Sarcina lutea 8340) [mg/L] | MIC (Staph. aureus Russell) [mg/L] | MIC (Staph. aureus W2827) [mg/L] | MIC (Strep. faecalis I) [mg/L] | MIC (Strep. agalactiae 2788-B) [mg/L] | MIC (Bord. bronchiseptica B08) [mg/L] | MIC (Bord. bronchiseptica B09) [mg/L] | MIC (Past. multocida PA1) [mg/L] | MIC (Past. multocida PA2) [mg/L] | also measured |
| --- | --- | --- | --- | --- | --- | --- | --- | --- | --- | --- | --- | --- | --- | --- | --- | --- | --- | --- | --- | --- | --- |
| CSc1cccc(-c2cnc(/C=C(\C)C[C@@H]3OC[C@H](C[C@@H]4O[C@H]4[C@@H](C)[C@H](C)O)[C@@H](O)[C@H]3O)o2)c1 [Example 22, 5-m-Methylthiophenyl-2-(1-normon-2-yl)oxazole A] | 0.5 (≈ 1.02 µM) | 0.5 (≈ 1.02 µM) | 0.5 (≈ 1.02 µM) | 1 (≈ 2.04 µM) | 0.05 (≈ 0.102 µM) | 0.1 (≈ 0.204 µM) | > 128 | > 128 | > 128 | 4 (≈ 8.17 µM) | > 128 | > 128 | 16 (≈ 32.7 µM) | 16 (≈ 32.7 µM) | > 128 | 16 (≈ 32.7 µM) | > 80 | 40 (≈ 81.7 µM) | 20 (≈ 40.8 µM) | 10 (≈ 20.4 µM) | MIC (M. suipneumoniae NB12; NB12, 144 h): 1 mg/L (≈ 2.04 µM); MIC (M. suipneumoniae HK(2)): 1 mg/L (≈ 2.04 µM); MIC [1]: 1 mg/L (≈ 2.04 µM); MIC (M. suipneumoniae UCD 1): 1 mg/L (≈ 2.04 µM); MIC (M. suipneumoniae TAM 6N): 1 mg/L (≈ 2.04 µM); MIC [2]: 1 mg/L (≈ 2.04 µM); MIC (M. hyorhinis ATCC 23234): 1 mg/L (≈ 2.04 µM); MIC (Past. haemolytica PA5): 80 mg/L (≈ 163 µM); MIC [8]: 80 mg/L (≈ 163 µM); MIC [9]: > 80 mg/L; MIC [10]: 1.25 mg/L (≈ 2.55 µM); MIC [11]: 20 mg/L (≈ 40.8 µM); MIC (Strep. dysgalactiae SPD1): 1.25 mg/L (≈ 2.55 µM) |
| C/C(=C\c1ncc(-c2cccc(S(C)(=O)=O)c2)o1)C[C@@H]1OC[C@H](C[C@@H]2O[C@H]2[C@@H](C)[C@H](C)O)[C@@H](O)[C@H]1O [Example 23, 5-m-Methylsulphonylphenyl-2-(1-normon-2-yl) oxazole A] | 0.5 (≈ 0.959 µM) | 0.5 (≈ 0.959 µM) | 0.5 (≈ 0.959 µM) | 1 (≈ 1.92 µM) | 0.025 (≈ 0.0479 µM) | 0.1 (≈ 0.192 µM) | > 64 | > 64 | > 64 | 1 (≈ 1.92 µM) | > 128 | > 128 | 16 (≈ 30.7 µM) | 16 (≈ 30.7 µM) | > 128 | 2 (≈ 3.83 µM) | > 80 | 40 (≈ 76.7 µM) | 5 (≈ 9.59 µM) | 2.5 (≈ 4.79 µM) | MIC (M. suipneumoniae NB12; 144 h, M. suipneumoniae NB12, Friis broth, 0.9% agarose, 6 days, 37° C., read-out: MIC): 0.5 mg/L (≈ 0.959 µM); MIC (M. suipneumoniae HK(2)): 1 mg/L (≈ 1.92 µM); MIC [1]: 1 mg/L (≈ 1.92 µM); MIC (M. suipneumoniae UCD 1): 1 mg/L (≈ 1.92 µM); MIC (M. suipneumoniae TAM 6N): 1 mg/L (≈ 1.92 µM); MIC [2, 12]: 0.5 mg/L (≈ 0.959 µM); MIC (M. hyorhinis ATCC 23234; [13]): 0.5 mg/L (≈ 0.959 µM); MIC (Past. haemolytica PA5): 80 mg/L (≈ 153 µM); MIC [8]: > 80 mg/L; MIC [9]: > 80 mg/L; MIC [10]: 5 mg/L (≈ 9.59 µM); MIC [11]: 10 mg/L (≈ 19.2 µM); MIC (Strep. dysgalactiae SPD1): 1.25 mg/L (≈ 2.4 µM) |
| C/C(=C\c1ncc(Cc2ccccc2)o1)C[C@@H]1OC[C@H](C[C@@H]2O[C@H]2[C@@H](C)[C@H](C)O)[C@@H](O)[C@H]1O [Example 27, 5-Benzyl-2-(1-normon-2-yl)oxazole A] | 5 (≈ 10.9 µM) | 5 (≈ 10.9 µM) | 5 (≈ 10.9 µM) | 2.5 (≈ 5.46 µM) | 0.05 (≈ 0.109 µM) | 0.25 (≈ 0.546 µM) | > 64 | > 64 | > 64 | 2 (≈ 4.37 µM) | > 64 | > 64 | 16 (≈ 35 µM) | 16 (≈ 35 µM) | > 64 | 16 (≈ 35 µM) | > 80 | 80 (≈ 175 µM) | 20 (≈ 43.7 µM) | 5 (≈ 10.9 µM) | MIC (M. suipneumoniae NB12; NB12, 144 h): 5 mg/L (≈ 10.9 µM); MIC (M. suipneumoniae HK(2); M. suipneumoniae HK(2), 6 days, 37° C., read-out: MIC): 10 mg/L (≈ 21.9 µM); MIC ([1]; M. suipneumoniae J2206/183^b, 6 days, 37° C., read-out: MIC): 10 mg/L (≈ 21.9 µM); MIC (M. suipneumoniae UCD 1; M. suipneumoniae UCD 1, 6 days, 37° C., read-out: MIC): 10 mg/L (≈ 21.9 µM); MIC (M. suipneumoniae TAM 6N; M. suipneumoniae TAM 6N, 6 days, 37° C., read-out: MIC): 10 mg/L (≈ 21.9 µM); MIC [2, 12]: 5 mg/L (≈ 10.9 µM); MIC (M. hyorhinis ATCC 23234; [13]): 10 mg/L (≈ 21.9 µM); MIC [8]: > 80 mg/L; MIC [9]: > 80 mg/L; MIC [10]: 2.5 mg/L (≈ 5.46 µM); MIC [11]: > 80 mg/L; MIC (Strep. dysgalactiae SPD1): 2.5 mg/L (≈ 5.46 µM) |
